This note sets out measurements from patent US20240360157A1, “TYK2 INHIBITORS” (BIOGEN MA INC., priority 2021, published 2024).

Common to all, as to assay type: biochemical
The target in test [1] is human JAK1 catalytic kinase (JH1) domain (Homo sapiens (Human), UniProt P23458). The test can be described thus: ADP-Glo Kinase Assay, recombinant JAK1 catalytic kinase (JH1) domain. The settings on record: recombinant JH1 domain 4 nM, 35 μM ATP, JAK3-342 peptide, mean, read-out: JAK1 biochem IC50 (nM) Mean. In short, it runs like this:
(§1)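 Luminescent ADP read-out after residual ATP depletion, 100 min reaction. Kinase domain concentrations were 4 nM (JAK1), 0.2 nM (JAK2), 0.3 nM (JAK3) and 2 nM (TYK2), each with 50 μM peptide. IC50 values came from 4-parameter logistic fits over 11 points, 3-fold steps, top 10 μM or 1 μM.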
In general terms: ADP-Glo first removes unused ATP, then detects ADP through luciferase.

The target of test [2] is human JAK2 catalytic kinase (JH1) domain (Homo sapiens (Human), UniProt O60674). The test can be described thus: ADP-Glo Kinase Assay, recombinant JAK2 catalytic kinase (JH1) domain. To be noted: recombinant JH1 domain 0.2 nM, 15 μM ATP, JAK3-974 peptide, mean, read-out: JAK2 biochem IC50 (nM) Mean. The method in brief: as §1
Chain of human JAK2 catalytic kinase (JH1) domain (O60674 849-1124): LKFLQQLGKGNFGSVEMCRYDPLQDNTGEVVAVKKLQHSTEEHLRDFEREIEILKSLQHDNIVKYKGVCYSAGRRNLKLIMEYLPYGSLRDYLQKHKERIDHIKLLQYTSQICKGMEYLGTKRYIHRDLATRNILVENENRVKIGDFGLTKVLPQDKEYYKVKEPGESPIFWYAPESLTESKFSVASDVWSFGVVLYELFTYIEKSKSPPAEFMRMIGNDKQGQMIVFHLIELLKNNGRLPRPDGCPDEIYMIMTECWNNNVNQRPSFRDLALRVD
Test [3] deals with human JAK3 catalytic kinase (JH1) domain (Homo sapiens (Human), UniProt P52333). The test can be described thus: ADP-Glo Kinase Assay, recombinant JAK3 catalytic kinase (JH1) domain. The settings on record: recombinant JH1 domain 0.3 nM, 4 μM ATP, JAK3-974 peptide, mean, read-out: JAK3 biochem IC50 (nM) Mean. The method in brief: as §1
Chain of human JAK3 catalytic kinase (JH1) domain (P52333 822-1111): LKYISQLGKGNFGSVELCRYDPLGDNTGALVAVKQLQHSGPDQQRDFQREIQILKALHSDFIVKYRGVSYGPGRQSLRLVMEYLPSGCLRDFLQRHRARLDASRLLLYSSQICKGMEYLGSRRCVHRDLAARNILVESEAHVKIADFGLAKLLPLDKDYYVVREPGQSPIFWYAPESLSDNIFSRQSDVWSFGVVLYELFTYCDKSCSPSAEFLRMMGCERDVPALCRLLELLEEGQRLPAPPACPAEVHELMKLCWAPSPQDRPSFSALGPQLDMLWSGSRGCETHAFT
Test [4] has as its target human TYK2 catalytic kinase (JH1) domain (Homo sapiens (Human), UniProt P29597). Briefly: ADP-Glo Kinase Assay, recombinant TYK2 catalytic kinase (JH1) domain. To be noted: recombinant JH1 domain 2 nM, 10 μM ATP, JAK3-974 peptide, mean, read-out: TYK2 biochem IC50 (nM) Mean. In short, it runs like this: as §1

SMILES strings stand for the structures.

Chain of human JAK1 catalytic kinase (JH1) domain (P23458 875-1153): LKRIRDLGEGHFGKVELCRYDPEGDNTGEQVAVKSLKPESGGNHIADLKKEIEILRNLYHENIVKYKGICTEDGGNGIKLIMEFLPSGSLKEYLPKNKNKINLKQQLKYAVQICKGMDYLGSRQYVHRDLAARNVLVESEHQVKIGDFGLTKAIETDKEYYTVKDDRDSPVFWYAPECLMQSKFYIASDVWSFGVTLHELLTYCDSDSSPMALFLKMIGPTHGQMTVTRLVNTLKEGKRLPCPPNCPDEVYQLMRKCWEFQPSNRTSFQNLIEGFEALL
Chain of human TYK2 catalytic kinase (JH1) domain (P29597 897-1176): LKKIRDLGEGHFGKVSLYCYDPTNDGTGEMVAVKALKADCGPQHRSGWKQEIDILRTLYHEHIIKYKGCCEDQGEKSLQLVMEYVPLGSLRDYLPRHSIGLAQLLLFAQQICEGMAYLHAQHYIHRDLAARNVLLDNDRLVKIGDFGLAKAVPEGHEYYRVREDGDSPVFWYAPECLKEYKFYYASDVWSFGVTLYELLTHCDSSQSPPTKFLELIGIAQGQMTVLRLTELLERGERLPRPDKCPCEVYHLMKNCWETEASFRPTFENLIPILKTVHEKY

As usually defined, the IC50 is the concentration needed to halve the response being measured. With `O=C([C@@H]1C[C@H]1F)N1C2CCC1CN(c1ccnc3[nH]c(C4CC4)nc13)C2` [Example 208, (3-(2-cyclopropyl-3H-imidazo[4,5-b]pyridin-7-yl)-3,8-diazabicyclo[3.2.1]octan-8-yl)((1S,2R)-2-fluorocyclopropyl)methanone], the 50% inhibitory concentration (IC50) turned out to be 716 nM in test [1], 772 nM in test [2], 6420 nM in test [3] and 85.4 nM in test [4].

On to `Cn1cc(-c2cc3c(N4CC5CCC(C4)N5C(=O)C4(F)CC4)ncnn3c2)cn1` [Example 64, (1-fluorocyclopropyl)(3-(6-(1-methyl-1H-pyrazol-4-yl)pyrrolo[2,1-f][1,2,4]triazin-4-yl)-3,8-diazabicyclo[3.2.1]octan-8-yl)methanone], for which the IC50 in test [1] was 1150 nM; in test [2], 5210 nM; in test [3], 1110 nM; in test [4], 289 nM.

As for `O=C([C@@H]1CC1(F)F)N1C2CCC1CN(c1ncnn3cc(-c4cnn(C(F)F)c4)cc13)C2` [Example 3, ((S)-2,2-difluorocyclopropyl)(3-(6-(1-(difluoromethyl)-1H-pyrazol-4-yl)pyrrolo[2,1-f][1,2,4]triazin-4-yl)-3,8-diazabicyclo[3.2.1]octan-8-yl)methanone], the IC50 was 653 nM in test [1], 714 nM in test [2], 6160 nM in test [3] and 27.8 nM in test [4].

In the case of `Cn1cc(-c2cc3c(N4CC5CCC(C4)N5C(=O)[C@@H]4C[C@H]4F)ccnn3c2)cn1` [Example 159, ((1S,2R)-2-fluorocyclopropyl)(3-(6-(1-methyl-1H-pyrazol-4-yl)pyrrolo[1,2-b]pyridazin-4-yl)-3,8-diazabicyclo[3.2.1]octan-8-yl)methanone], the concentration for half-maximal inhibition (IC50) in test [1] was determined as 51 nM; in test [2] it was 30 nM; in test [3], 263 nM; in test [4] it was 1.1 nM.

Take `CNc1cc(-c2nc3c(N4CC5CCC(C4)N5C(=O)[C@@H]4C[C@H]4F)ccnc3[nH]2)ccn1` [Example 217, ((1S,2R)-2-fluorocyclopropyl)(3-(2-(2-(methylamino)pyridin-4-yl)-3H-imidazo[4,5-b]pyridin-7-yl)-3,8-diazabicyclo[3.2.1]octan-8-yl)methanone]: the half-inhibitory concentration (IC50) is 3 nM in test [1], 8 nM in test [2], 107 nM in test [3] and 0.4 nM in test [4].

For `O=C(C1CC1)N1C2CCC1CN(c1ncnn3cc(-c4ccc(Cl)nc4)cc13)C2` [Example 179], the IC50 worked out at 5400 nM in test [1], 10000 nM in test [2], 9270 nM in test [3] and 684 nM in test [4].

Regarding `O=C(C1CC1)N1C2CCC1CN(c1ncnn3cc(-c4cnn(C5COC5)c4)cc13)C2` [Example 151], the IC50 turned out to be 3300 nM in test [1], 4100 nM in test [2], 3380 nM in test [3] and 239 nM in test [4].

As to `O=C([C@@H]1C[C@H]1F)N1C2CCC1CN(c1ncnn3cc(-c4cnn(C(F)F)c4)cc13)C2` [Example 76, (3-(6-(1-(difluoromethyl)-1H-pyrazol-4-yl)pyrrolo[2,1-f][1,2,4]triazin-4-yl)-3,8-diazabicyclo[3.2.1]octan-8-yl)((1S,2R)-2-fluorocyclopropyl)methanone], the IC50 came to 574 nM in test [1], 850 nM in test [2], 6270 nM in test [3] and 23.1 nM in test [4].

Regarding `Cn1cc(-c2cc3c(N4CC5CCC(C4)N5C(=O)[C@@H]4C[C@@H]4F)ncnn3c2)cn1` [Example 80, ((1S,2S)-2-fluorocyclopropyl)(3-(6-(1-methyl-1H-pyrazol-4-yl)pyrrolo[2,1-f][1,2,4]triazin-4-yl)-3,8-diazabicyclo[3.2.1]octan-8-yl)methanone], the half-inhibitory concentration (IC50) in test [1] is 1340 nM; in test [2], 8020 nM; in test [3] it was 2050 nM; in test [4] it was 483 nM.

As for `Cn1cc(-c2cc3c(N4CC5CCC(C4)N5C(=O)[C@@H]4C[C@H]4F)ccnn3c2)c(F)n1` [Example 118, (3-(6-(3-fluoro-1-methyl-1H-pyrazol-4-yl)pyrrolo[1,2-b]pyridazin-4-yl)-3,8-diazabicyclo[3.2.1]octan-8-yl)((1S,2R)-2-fluorocyclopropyl)methanone], the IC50 in test [1] came out at 92 nM; in test [2] it was 28 nM; in test [3], 502 nM; in test [4], 1.8 nM.

As for `Cc1ccc(-c2cc3c(N4CC5CCC(C4)N5C(=O)[C@@H]4C[C@H]4F)ccnn3c2)cn1` [Example 113, ((1S,2R)-2-fluorocyclopropyl)(3-(6-(6-methylpyridin-3-yl)pyrrolo[1,2-b]pyridazin-4-yl)-3,8-diazabicyclo[3.2.1]octan-8-yl)methanone], the IC50 came out at 69 nM in test [1], 56 nM in test [2], 672 nM in test [3] and 3 nM in test [4].

For the molecule `Cc1ccc(-c2cc3c(N4CC5CCC(C4)N5C(=O)[C@@H]4C[C@H]4F)ccnn3c2)nn1` [Example 125, ((1S,2R)-2-fluorocyclopropyl)(3-(6-(6-methylpyridazin-3-yl)pyrrolo[1,2-b]pyridazin-4-yl)-3,8-diazabicyclo[3.2.1]octan-8-yl)methanone], the IC50 in test [1] was 236 nM; in test [2], 49 nM; in test [3], 1010 nM; in test [4] it was 8.8 nM.

Take `COc1ccc(-c2cc3c(N4CC5CCC(C4)N5C(=O)[C@@H]4C[C@H]4F)ncnc3[nH]2)cn1` [Example 225, ((1S,2R)-2-fluorocyclopropyl)(3-(6-(6-methoxypyridin-3-yl)-7H-pyrrolo[2,3-d]pyrimidin-4-yl)-3,8-diazabicyclo[3.2.1]octan-8-yl)methanone]: the IC50 in test [1] was 245 nM; in test [2], 357 nM; in test [3], 735 nM; in test [4] it was 21.3 nM.

As to `O=C([C@@H]1C[C@H]1F)N1C2CCC1CN(c1ccnc3[nH]c(C4(F)CC4)nc13)C2` [Example 210, ((1S,2R)-2-fluorocyclopropyl)(3-(2-(1-fluorocyclopropyl)-3H-imidazo[4,5-b]pyridin-7-yl)-3,8-diazabicyclo[3.2.1]octan-8-yl)methanone], the IC50 in test [1] came to 798 nM; in test [2], 2600 nM; in test [3], 5520 nM; in test [4] it was 398 nM.

Regarding `Cc1cc(-c2cc3c(N4CC5CCC(C4)N5C(=O)[C@@H]4C[C@H]4F)ncnn3c2)on1` [Example 166], the IC50 in test [1] came out at 1160 nM; in test [2], 1050 nM; in test [3], 9260 nM; in test [4], 56 nM.

As to `O=C([C@H]1C[C@@H]1F)N1C2CCC1CN(c1ncnn3cc(-c4cnn(C(F)F)c4)cc13)C2` [Example 4, (3-(6-(1-(difluoromethyl)-1H-pyrazol-4-yl)pyrrolo[2,1-f][1,2,4]triazin-4-yl)-3,8-diazabicyclo[3.2.1]octan-8-yl)((1R,2S)-2-fluorocyclopropyl)methanone], the IC50 is 452 nM in test [1], 1450 nM in test [2], 776 nM in test [3] and 73.6 nM in test [4].

On to `O=C([C@@H]1C[C@H]1F)N1C2CCC1CN(c1ccnn3cc(-c4ccnc(C(F)(F)F)c4)cc13)C2` [Example 112, ((1S,2R)-2-fluorocyclopropyl)(3-(6-(2-(trifluoromethyl)pyridin-4-yl)pyrrolo[1,2-b]pyridazin-4-yl)-3,8-diazabicyclo[3.2.1]octan-8-yl)methanone], for which the IC50 in test [1] was found to be 37 nM; in test [2], 38 nM; in test [3], 835 nM; in test [4], 2.9 nM.

Turning to `O=C([C@@H]1C[C@H]1F)N1C2CCC1CN(c1ccnn3cc(-c4ccnc(N5CCC5)c4)cc13)C2` [Example 119, (3-(6-(2-(azetidin-1-yl)pyridin-4-yl)pyrrolo[1,2-b]pyridazin-4-yl)-3,8-diazabicyclo[3.2.1]octan-8-yl)((1S,2R)-2-fluorocyclopropyl)methanone], the IC50 is 1720 nM in test [1], 215 nM in test [2], 5520 nM in test [3] and 45 nM in test [4].

As to `N#Cc1cc(-c2cc3c(N4CC5CCC(C4)N5C(=O)[C@@H]4C[C@H]4F)ncnn3c2)ccn1` [Example 95, 4-(4-(8-((1S,2R)-2-fluorocyclopropane-1-carbonyl)-3,8-diazabicyclo[3.2.1]octan-3-yl)pyrrolo[2,1-f][1,2,4]triazin-6-yl)picolinonitrile], the 50% inhibitory concentration (IC50) was 741 nM in test [1], 942 nM in test [2], 7940 nM in test [3] and 45.5 nM in test [4].

`Cn1cc(-c2cc3c(N4CC5CCC(C4)N5C(=O)C(F)(F)F)ncnn3c2)cn1` [Example 87, 2,2,2-trifluoro-1-(3-(6-(1-methyl-1H-pyrazol-4-yl)pyrrolo[2,1-f][1,2,4]triazin-4-yl)-3,8-diazabicyclo[3.2.1]octan-8-yl)ethan-1-one]: the IC50 in test [1] is 1200 nM; in test [2], 4870 nM; in test [3], 2550 nM; in test [4], 266 nM.

With `O=C([C@@H]1C[C@H]1F)N1C2CCC1CN(c1ccnn3cc(-c4ccc(=O)n(C(F)F)c4)cc13)C2` [Example 132, 1-(difluoromethyl)-5-(4-(8-((1S,2R)-2-fluorocyclopropane-1-carbonyl)-3,8-diazabicyclo[3.2.1]octan-3-yl)pyrrolo[1,2-b]pyridazin-6-yl)pyridin-2(1H)-one], the IC50 in test [1] is 34 nM; in test [2] it was 37 nM; in test [3], 452 nM; in test [4], 3.3 nM.
